Converted amounts (≈) assume the structure as drawn. The source made the active and inactive calls. The rule behind the calls is not given here. Bridge positions count the residues as written; N and C are the ends. Peptide text beside a SMILES is read from it. I, II: the chains in the order shown. * marks the point of attachment. Decanoyl = CCCCCCCCCC(=O)*; Octanoyl = CCCCCCCC(=O)*; Butyryl = CCCC(=O)*
What was measured:
Pseudomonas aeruginosa [1] = experiment: Antibacterial activity against Pseudomonas aeruginosa DM23376 after 24 hrs by broth microdilution method; format: functional; conditions: DM23376, 24 h
Escherichia coli [2] = experiment: Antibacterial activity against Escherichia coli ATCC 25922 after 24 hrs by broth microdilution method; format: functional; conditions: ATCC 25922, 24 h
[3] = Induction of calcein leakage from DOPC artificial membrane at 1:32 ratio of compound to lipid by fluorescence assay; format: physicochemical
Klebsiella pneumoniae = experiment: Antibacterial activity against Klebsiella pneumoniae DM4299 after 24 hrs by broth microdilution method; format: functional; conditions: DM4299, 24 h
Lipopolysaccharide (LPS) [4] = experiment: Induction of Escherichia coli 0111:B4 LPS neutralization using p-nitroaniline assessed as concentration required to neutralize 50% after 1 hr by limulus amebocyte lysate assay
Pseudomonas aeruginosa [5] = experiment: Antibacterial activity against Pseudomonas aeruginosa DU14476 after 24 hrs by broth microdilution method; format: functional; conditions: DU14476, 24 h
Pseudomonas aeruginosa [6] = experiment: Antibacterial activity against Pseudomonas aeruginosa DR18531 after 24 hrs by broth microdilution method; format: functional; conditions: DR18531, 24 h
Pseudomonas aeruginosa [7] = experiment: Antibacterial activity against Pseudomonas aeruginosa DM23155 after 24 hrs by broth microdilution method; format: functional; conditions: DM23155, 24 h
[8] = Induction of calcein leakage from DOPE/DOPG artificial membrane at 1:32 ratio of compound to lipid by fluorescence assay; format: physicochemical
Pseudomonas aeruginosa [9] = experiment: Antibacterial activity against Pseudomonas aeruginosa DR5790 after 24 hrs by broth microdilution method; format: functional; conditions: DR5790, 24 h
Lipopolysaccharide (LPS) [10] = experiment: Displacement of dansylcadaverine from Escherichia coli 0111:B4 LPS at 15 to 30 uM after 5 mins by high-throughput fluorescence displacement assay
Pseudomonas aeruginosa [11] = experiment: Antibacterial activity against Pseudomonas aeruginosa ATCC 9027 after 24 hrs by broth microdilution method; format: functional; conditions: ATCC 9027, 24 h
Pseudomonas aeruginosa [12] = experiment: Antibacterial activity against Pseudomonas aeruginosa DR4877 after 24 hrs by broth microdilution method; format: functional; conditions: DR4877, 24 h
[13] = Toxicity in New Zealand white rabbit erythrocytes assessed as hemolytic activity after 60 mins; format: cell-based, Oryctolagus cuniculus; conditions: erythrocyte, 1 h
Pseudomonas aeruginosa [14] = experiment: Antibacterial activity against Pseudomonas aeruginosa ATCC 27853 after 24 hrs by broth microdilution method; format: functional; conditions: ATCC 27853, 24 h
Pseudomonas aeruginosa [15] = experiment: Induction of cytoplasmic membrane disruption in Pseudomonas aeruginosa DM23155 assessed as membrane integrity at 1 to 2 times MIC after 1 hr by fluorescence assay; format: functional
Pseudomonas aeruginosa [16] = experiment: Antibacterial activity against Pseudomonas aeruginosa DM23257 after 24 hrs by broth microdilution method; format: functional; conditions: DM23257, 24 h
Pseudomonas aeruginosa [17] = experiment: Induction of cytoplasmic membrane disruption in Pseudomonas aeruginosa DM23155 assessed as membrane integrity at 2 times MIC after 1 hr by fluorescence assay; format: functional
Pseudomonas aeruginosa [18] = experiment: Induction of cytoplasmic membrane depolarization in Pseudomonas aeruginosa DM23155 at 4 times MIC after 1 hr by fluorescence assay; format: functional, organism-based
Pseudomonas aeruginosa [19] = experiment: Antibacterial activity against Pseudomonas aeruginosa DM4150R after 24 hrs by broth microdilution method; format: functional
Pseudomonas aeruginosa [20] = experiment: Antibacterial activity against Pseudomonas aeruginosa DM23155 assessed as log reduction of viable count at 2 times MIC after 24 hrs by time-kill assay; format: functional, organism-based
Pseudomonas aeruginosa [21] = experiment: Antibacterial activity against Pseudomonas aeruginosa DM23155 assessed as log reduction of viable count at 2 times MIC after 5 hrs by time-kill assay relative to control; format: functional
Pseudomonas aeruginosa [22] = experiment: Antibacterial activity against Pseudomonas aeruginosa DM23155 assessed as log reduction of viable count at 1 time MIC after 5 hrs by time-kill assay relative to control; format: functional
Pseudomonas aeruginosa [23] = experiment: Induction of 1-N-phenylnaphthylamine uptake in Pseudomonas aeruginosa DM23155 at 400 uM after 1 hr by fluorescence assay relative to polymyxin B; format: functional
Pseudomonas aeruginosa [24] = experiment: Antibacterial activity against Pseudomonas aeruginosa DM23155 assessed as log reduction of viable count at 1 time MIC after 24 hrs by time-kill assay; format: functional, organism-based
Escherichia coli [25] = experiment: Antibacterial activity against Escherichia coli ATCC 25922 after 24 hrs by checkerboard assay in presence of gentamicin; format: functional
Pseudomonas aeruginosa [26] = experiment: Antibacterial activity against Pseudomonas aeruginosa DM23155 after 24 hrs by checkerboard assay in presence of gentamicin; format: functional
Escherichia coli [27] = experiment: Antibacterial activity against Escherichia coli ATCC 25922 after 24 hrs by checkerboard assay in presence of erythromycin; format: functional
Pseudomonas aeruginosa [28] = experiment: Antibacterial activity against Pseudomonas aeruginosa DM23155 assessed as log reduction of viable count MIC up to 24 hrs by time-kill assay; format: functional, organism-based
Escherichia coli [29] = experiment: Antibacterial activity against Escherichia coli ATCC 25922 after 24 hrs by checkerboard assay in presence of streptomycin; format: functional
Pseudomonas aeruginosa [30] = experiment: Antibacterial activity against Pseudomonas aeruginosa DM23155 after 24 hrs by checkerboard assay in presence of nalidixic acid; format: functional
Pseudomonas aeruginosa [31] = experiment: Antibacterial activity against Pseudomonas aeruginosa DM23155 after 24 hrs by checkerboard assay in presence of erythromycin; format: functional
Escherichia coli [32] = experiment: Antibacterial activity against Escherichia coli ATCC 25922 after 24 hrs by checkerboard assay in presence of kanamycin; format: functional
Pseudomonas aeruginosa [33] = experiment: Antibacterial activity against Pseudomonas aeruginosa DM23155 after 24 hrs by checkerboard assay in presence of streptomycin; format: functional
Pseudomonas aeruginosa [34] = experiment: Antibacterial activity against Pseudomonas aeruginosa DM23155 assessed as log reduction of viable count at 2 times MIC after 30 mins by time-kill assay relative to control; format: functional
Pseudomonas aeruginosa [35] = experiment: Antibacterial activity against Pseudomonas aeruginosa DM23155 assessed as log reduction of viable count at 1 to 2 times MIC after 24 hrs by time-kill assay; format: functional, organism-based
Pseudomonas aeruginosa [36] = experiment: Antibacterial activity against Pseudomonas aeruginosa DM23155 after 24 hrs by checkerboard assay in presence of kanamycin; format: functional
Pseudomonas aeruginosa [37] = experiment: Antibacterial activity against Pseudomonas aeruginosa DM23155 assessed as log reduction of viable count at 1 to 2 times MIC by time-kill assay relative to control; format: functional, organism-based
Escherichia coli [38] = experiment: Antibacterial activity against Escherichia coli ATCC 25922 after 24 hrs by checkerboard assay in presence of nalidixic acid; format: functional
Lipopolysaccharide (LPS) [39] = experiment: Induction of Pseudomonas aeruginosa serotype 10 LPS neutralization using p-nitroaniline assessed as concentration required to neutralize 50% after 1 hr by limulus amebocyte lysate assay

Row | Compound | MIC (Pseudomonas aeruginosa [1]) [µM] | MIC (Escherichia coli [2]) [µM] | Activity [3] | MIC (Klebsiella pneumoniae) [µM] | EC50 (Lipopolysaccharide (LPS) [4]) [µM] | MIC (Pseudomonas aeruginosa [5]) [µM] | MIC (Pseudomonas aeruginosa [6]) [µM] | MIC (Pseudomonas aeruginosa [7]) [µM] | MIC (Pseudomonas aeruginosa [9]) [µM] | Activity (Lipopolysaccharide (LPS) [10]) [%] | MIC (Pseudomonas aeruginosa [11]) [µM] | MIC (Pseudomonas aeruginosa [12]) [µM] | HC10 [13] [µg/mL] | MIC (Pseudomonas aeruginosa [14]) [µM] | MIC (Pseudomonas aeruginosa [16]) [µM] | Activity (Pseudomonas aeruginosa [18]) | MIC (Pseudomonas aeruginosa [19]) [µM] | Activity (Pseudomonas aeruginosa [23]) [%] | further results
1 | CCCCCCCCCC(=O)N[C@@H](CCCNC(=N)N)C(=O)NCC(=O)N[C@@H](CCCNC(=N)N)C(=O)N[C@@H](CCCCN)C(=O)N[C@H](C(=O)N[C@H](C(=O)N[C@@H](CCCNC(=N)N)C(=O)N[C@@H](CCCNC(=N)N)C(=O)NCCCC[C@H](NC(=O)[C@H](CCCNC(=N)N)NC(=O)[C@H](CCCNC(=N)N)NC(=O)[C@@H](NC(=O)[C@@H](NC(=O)[C@H](CCCCN)NC(=O)[C@H](CCCNC(=N)N)NC(=O)CNC(=O)[C@H](CCCNC(=N)N)NC(=O)CCCCCCCCC)C(C)C)C(C)C)C(=O)N[C@@H](CCCCN)C(=O)O)C(C)C)C(C)C (I: Decanoyl-RGRKVVRRKK-OH / II: Decanoyl-RGRKVVRR; amide I:9-II:C) | 3 (≈ 7.8 µg/mL) | 6 (≈ 15.6 µg/mL) | Active | 3 (≈ 7.8 µg/mL) | 38.1 | 3 (≈ 7.8 µg/mL) | 1.5 (≈ 3.9 µg/mL) | 3 (≈ 7.8 µg/mL) | 3 (≈ 7.8 µg/mL) | 131 | 3 (≈ 7.8 µg/mL) | 6 (≈ 15.6 µg/mL) | > 10000 | 3 (≈ 7.8 µg/mL) | 3 (≈ 7.8 µg/mL) | Active | 1.5 (≈ 3.9 µg/mL) |  | Activity [8]: Active; Activity (Pseudomonas aeruginosa [15]): >80%; Activity (Pseudomonas aeruginosa [17]): 51.1%
2 | N=C(N)NCCC[C@H](NC(=O)CNC(=O)CNC(=O)[C@H](CCCCN)NC(=O)[C@H](CCCNC(=N)N)NC(=O)CNC(=O)[C@@H](N)CCCNC(=N)N)C(=O)N[C@@H](CCCNC(=N)N)C(=O)NCCCC[C@H](NC(=O)[C@H](CCCNC(=N)N)NC(=O)[C@H](CCCNC(=N)N)NC(=O)CNC(=O)CNC(=O)[C@H](CCCCN)NC(=O)[C@H](CCCNC(=N)N)NC(=O)CNC(=O)[C@@H](N)CCCNC(=N)N)C(=O)N[C@@H](CCCCN)C(=O)O (I: H-RGRKGGRRKK-OH / II: H-RGRKGGRR; amide I:9-II:C) | 6 (≈ 12.7 µg/mL) | 6 (≈ 12.7 µg/mL) |  | 3 (≈ 6.37 µg/mL) | > 1000 | 6 (≈ 12.7 µg/mL) | 3 (≈ 6.37 µg/mL) | 6 (≈ 12.7 µg/mL) | 6 (≈ 12.7 µg/mL) | 84.8 | 6 (≈ 12.7 µg/mL) | 6 (≈ 12.7 µg/mL) | > 10000 | 6 (≈ 12.7 µg/mL) | 10 (≈ 21.2 µg/mL) |  | 6 (≈ 12.7 µg/mL) | 1.9 | Activity (Pseudomonas aeruginosa [20]): Active; FC (Pseudomonas aeruginosa [21]): 10; FC (Pseudomonas aeruginosa [22]): 2.7; Activity (Pseudomonas aeruginosa [24]): inactive
3 | CCCCCCCC(=O)N[C@@H](CCCNC(=N)N)C(=O)NCC(=O)N[C@@H](CCCNC(=N)N)C(=O)N[C@@H](CCCCN)C(=O)NCC(=O)NCC(=O)N[C@@H](CCCNC(=N)N)C(=O)N[C@@H](CCCNC(=N)N)C(=O)NCCCC[C@H](NC(=O)[C@H](CCCNC(=N)N)NC(=O)[C@H](CCCNC(=N)N)NC(=O)CNC(=O)CNC(=O)[C@H](CCCCN)NC(=O)[C@H](CCCNC(=N)N)NC(=O)CNC(=O)[C@H](CCCNC(=N)N)NC(=O)CCCCCCC)C(=O)N[C@@H](CCCCN)C(=O)O (I: Octanoyl-RGRKGGRRKK-OH / II: Octanoyl-RGRKGGRR; amide I:9-II:C) | 3 (≈ 7.12 µg/mL) | 3 (≈ 7.12 µg/mL) | Active | 3 (≈ 7.12 µg/mL) | 117 | 3 (≈ 7.12 µg/mL) | 3 (≈ 7.12 µg/mL) | 3 (≈ 7.12 µg/mL) | 3 (≈ 7.12 µg/mL) | 112 | 3 (≈ 7.12 µg/mL) | 3 (≈ 7.12 µg/mL) | > 10000 | 3 (≈ 7.12 µg/mL) | 6 (≈ 14.2 µg/mL) | Active | 3 (≈ 7.12 µg/mL) | 20 | fractional inhibitory concentration index (FICI) (Escherichia coli [25]): 0.38; fractional inhibitory concentration index (FICI) (Pseudomonas aeruginosa [26]): 0.38; fractional inhibitory concentration index (FICI) (Escherichia coli [27]): 1; Activity (Pseudomonas aeruginosa [28]): Dose-dependent effect; fractional inhibitory concentration index (FICI) (Escherichia coli [29]): 0.5; fractional inhibitory concentration index (FICI) (Pseudomonas aeruginosa [30]): 0.56; fractional inhibitory concentration index (FICI) (Pseudomonas aeruginosa [31]): 0.38; fractional inhibitory concentration index (FICI) (Escherichia coli [32]): 0.56; fractional inhibitory concentration index (FICI) (Pseudomonas aeruginosa [33]): 0.56; FC (Pseudomonas aeruginosa [34]): 3; Activity (Pseudomonas aeruginosa [35]): Active; fractional inhibitory concentration index (FICI) (Pseudomonas aeruginosa [36]): 0.56; Activity (Pseudomonas aeruginosa [37]): Active; fractional inhibitory concentration index (FICI) (Escherichia coli [38]): 0.56
4 | CCCC(=O)N[C@@H](CCCNC(=N)N)C(=O)NCC(=O)N[C@@H](CCCNC(=N)N)C(=O)N[C@@H](CCCCN)C(=O)NCC(=O)NCC(=O)N[C@@H](CCCNC(=N)N)C(=O)N[C@@H](CCCNC(=N)N)C(=O)NCCCC[C@H](NC(=O)[C@H](CCCNC(=N)N)NC(=O)[C@H](CCCNC(=N)N)NC(=O)CNC(=O)CNC(=O)[C@H](CCCCN)NC(=O)[C@H](CCCNC(=N)N)NC(=O)CNC(=O)[C@H](CCCNC(=N)N)NC(=O)CCC)C(=O)N[C@@H](CCCCN)C(=O)O (I: Butyryl-RGRKGGRRKK-OH / II: Butyryl-RGRKGGRR; amide I:9-II:C) |  | 3 (≈ 6.79 µg/mL) |  | 6 (≈ 13.6 µg/mL) | 769 |  |  | 6 (≈ 13.6 µg/mL) |  | 72.4 |  |  | > 10000 |  |  |  |  | 2.5 | EC50 (Lipopolysaccharide (LPS) [39]): 345 µM
